Here are results for 2 compounds from US5593984A, “Cephalosporin derivatives” (Yuhan Corporation, priority 1992, dated 1997).

Converted amounts (≈) assume the structure as drawn. Like-named read-outs stand apart in the source and are kept apart here.

In one assay the test system is E. coli NIHJ JC-2. Description: MIC by agar dilution, E. coli NIHJ JC-2. It is filed as cell-based. The settings on record: Escherichia coli, NIHJJC2, 17 h, read-out: Minimal Inhibitory Concentration (MIC). Summed up:
(§1)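 Two-fold dilutions of compound were dispersed in Mueller-Hinton agar, inoculated with test strain at 10^6 CFU per ml, and incubated at 35°-37° C. for 17±1 hours; MIC read from agar dilution.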
(In agar dilution, organisms are placed on agar that contains the substance at set levels.)

The test system of assay [1] is Ps. aeruginosa NCTC 10490. In words: MIC by agar dilution, Ps. aeruginosa NCTC 10490. It counts as cell-based. Particulars: Pseudomonas aeruginosa, NCTC10490, 17 h, Mueller-Hinton agar, read-out: Minimal Inhibitory Concentration (MIC). Summed up: as §1
Assay [2] has as its system Ser. marcescens IFO 12648. In words: MIC by agar dilution, Ser. marcescens IFO 12648. It is filed as cell-based. The settings on record: Serratia marcescens, IFO12648, 17 h, read-out: Minimal Inhibitory Concentration (MIC). Summed up: as §1
The subject of the next assay is Staph. aureus C-5113. Description: MIC by agar dilution, Staph. aureus C-5113. It is filed as cell-based. The settings on record: Staphylococcus aureus, C5113, 17 h, Mueller-Hinton agar, read-out: Minimal Inhibitory Concentration (MIC). A digest of the protocol:
as §1

The next assay relates to E. coli No. 29. In words: MIC by agar dilution, E. coli No. 29. It is filed as cell-based. The settings on record: Escherichia coli, read-out: Minimal Inhibitory Concentration (MIC). A digest of the protocol: as §1
In the next assay the test system is E. coli DY-1. In words: MIC by agar dilution, E. coli DY-1. It is filed as cell-based. The settings on record: Escherichia coli, DY1, 17 h, read-out: Minimal Inhibitory Concentration (MIC). A digest of the protocol:
as §1

A further assay deals with P. vulgaris NCTC 8313. In words: MIC by agar dilution, P. vulgaris NCTC 8313. The settings on record: Proteus vulgaris, NCTC8313, 17 h, read-out: Minimal Inhibitory Concentration (MIC). It is filed as cell-based. Summed up:
as §1

Another assay deals with K. pneumoniae NCTC 9632. In words: MIC by agar dilution, K. pneumoniae NCTC 9632. It is filed as cell-based. The settings on record: Klebsiella pneumoniae, NCTC9632, 17 h, read-out: Minimal Inhibitory Concentration (MIC). Summed up:
as §1

A further assay has as its system Staph. aureus C-5216. In words: MIC by agar dilution, Staph. aureus C-5216. It counts as cell-based. The settings on record: Staphylococcus aureus, C5216, 17 h, Mueller-Hinton agar, read-out: Minimal Inhibitory Concentration (MIC). Summed up: as §1
The next assay deals with Prov. stuartii IFO 12930. In words: MIC by agar dilution, Prov. stuartii IFO 12930. It counts as cell-based. The settings on record: Providencia stuartii, IFO12930, 17 h, Mueller-Hinton agar, read-out: Minimal Inhibitory Concentration (MIC). Summed up:
as §1

A further assay has as its system Staph. aureus Smith. In words: MIC by agar dilution, Staph. aureus Smith. It is filed as cell-based. The settings on record: Staphylococcus aureus, 17 h, Mueller-Hinton agar, read-out: Minimal Inhibitory Concentration (MIC). A digest of the protocol:
as §1

The next assay deals with Staph. aureus C-57. Description: MIC by agar dilution, Staph. aureus C-57. Particulars: Staphylococcus aureus, C57, 17 h, Mueller-Hinton agar, read-out: Minimal Inhibitory Concentration (MIC). It is filed as cell-based. Summed up: as §1
For assay [3], the system named is S. epidermidis ATCC 12228. In words: MIC by agar dilution, S. epidermidis ATCC 12228. It is filed as cell-based. Particulars: Staphylococcus epidermidis, ATCC12228, 17 h, read-out: Minimal Inhibitory Concentration (MIC). A digest of the protocol:
as §1

For assay [4], the system named is Gram-positive bacteria, in particular, Staphylococcus species. The settings on record: background art; cited from earlier work.
The test system of another assay is Ent. aerogenes IFO 12979. In words: MIC by agar dilution, Ent. aerogenes IFO 12979. It counts as cell-based. The settings on record: Klebsiella aerogenes, IFO12979, 17 h, Mueller-Hinton agar, read-out: Minimal Inhibitory Concentration (MIC). Summed up: as §1
Assay [5] deals with Gram-negative bacteria such as Pseudomonas aeruginosa. Particulars: background art; cited from earlier work.
The subject of the next assay is Ent. cloacae IFO 13535. In words: MIC by agar dilution, Ent. cloacae IFO 13535. It is filed as cell-based. Particulars: Enterobacter cloacae, IFO13535, 17 h, read-out: Minimal Inhibitory Concentration (MIC). Summed up: as §1
The next assay deals with B. subtilis ATCC 6633. Description: MIC by agar dilution, B. subtilis ATCC 6633. It counts as cell-based. The settings on record: Bacillus subtilis, ATCC6633, 17 h, read-out: Minimal Inhibitory Concentration (MIC). Summed up:
as §1

In assay [6] the test system is Ps. aeruginosa ATCC 10145. Description: MIC by agar dilution, Ps. aeruginosa ATCC 10145. It is filed as cell-based. The settings on record: Pseudomonas aeruginosa, ATCC10145, 17 h, Mueller-Hinton agar, read-out: Minimal Inhibitory Concentration (MIC). A digest of the protocol:
as §1

For a further assay, the system named is Staph. aureus ATCC 6538P. Description: MIC by agar dilution, Staph. aureus ATCC 6538P. It counts as cell-based. Particulars: Staphylococcus aureus, ATCC6538P, 17 h, read-out: Minimal Inhibitory Concentration (MIC). A digest of the protocol:
as §1

Another assay has as its system M. morganii DY-1. Description: MIC by agar dilution, M. morganii DY-1. It is filed as cell-based. Particulars: Morganella morganii, DY1, 17 h, read-out: Minimal Inhibitory Concentration (MIC). Summed up: as §1
The next assay deals with Ps. aeruginosa DY-2. Description: MIC by agar dilution, Ps. aeruginosa DY-2. It counts as cell-based. Particulars: Pseudomonas aeruginosa, DY2, 17 h, read-out: Minimal Inhibitory Concentration (MIC). Summed up: as §1

Turning to `CC(C)(O/N=C(\C(=O)N[C@@H]1C(=O)N2C(C(=O)[O-])=C(C[n+]3ccccc3)CS[C@H]12)c1csc(N)n1)C(=O)O` [CAZ, Ceftazidime, reference compound], the MIC came to 0.2 µg/mL (≈ 0.366 µM) in the assay with E. coli NIHJ JC-2; 0.1 µg/mL (≈ 0.183 µM) in [1]; 0.025 µg/mL (≈ 0.0457 µM) in [2]; 25 µg/mL (≈ 45.7 µM) in the assay with Staph. aureus C-5113; 0.1 µg/mL (≈ 0.183 µM) in the assay with E. coli No. 29 (NO.29, 17 h); 0.05 µg/mL (≈ 0.0915 µM) in the assay with E. coli DY-1. The MIC in the assay with P. vulgaris NCTC 8313 turned out to be 0.025 µg/mL (≈ 0.0457 µM); with K. pneumoniae NCTC 9632 it was 0.05 µg/mL (≈ 0.0915 µM); in the assay on Staph. aureus C-5216, 25 µg/mL (≈ 45.7 µM); in the assay on Prov. stuartii IFO 12930, 0.025 µg/mL (≈ 0.0457 µM); in the assay on Staph. aureus Smith, 6.25 µg/mL (≈ 11.4 µM); in the assay with Staph. aureus C-57, 100 µg/mL (≈ 183 µM). The MIC was 0.78 µg/mL (≈ 1.43 µM) in [3]; 0.05 µg/mL (≈ 0.0915 µM) with Ent. aerogenes IFO 12979; 1.56 µg/mL (≈ 2.85 µM) in the assay with Ent. cloacae IFO 13535; 1.56 µg/mL (≈ 2.85 µM) with B. subtilis ATCC 6633; 0.78 µg/mL (≈ 1.43 µM) in assay [6]; 1.56 µg/mL (≈ 2.85 µM) with Staph. aureus ATCC 6538P. The MIC came to 0.1 µg/mL (≈ 0.183 µM) in the assay on M. morganii DY-1 and 1.56 µg/mL (≈ 2.85 µM) in the assay with Ps. aeruginosa DY-2. Also, the “antibacterial activities against Gram-positive bacteria, in particular Staphylococcus species” value in assay [4] is “relatively inferior antibacterial activities”. For the same compound, the “antibacterial activities against Gram-negative bacteria such as Pseudomonas aeruginosa” value in assay [5] is on record as “superior antibacterial activities”.

Regarding `CO/N=C(\C(=O)N[C@@H]1C(=O)N2C(C(=O)O)=C(COC(C)=O)CS[C@H]12)c1csc(N)n1` [CTX, Cefotaxime, reference compound], the MIC in the assay on E. coli NIHJ JC-2 (E. coli NIHJ JC-2, agar dilution, Mueller-Hinton agar) was 0.05 µg/mL (≈ 0.11 µM); in assay [1] it was 0.78 µg/mL (≈ 1.71 µM); in assay [2] (Ser. marcescens IFO 12648, agar dilution, Mueller-Hinton agar), 0.05 µg/mL (≈ 0.11 µM); in the assay with Staph. aureus C-5113, 3.13 µg/mL (≈ 6.87 µM); in the assay with E. coli No. 29 (17 h, E. coli No. 29, agar dilution, Mueller-Hinton agar), at most 0.006 µg/mL; with E. coli DY-1 (E. coli DY-1, agar dilution, Mueller-Hinton agar) it was at most 0.006 µg/mL. Further, the MIC is at most 0.006 µg/mL in the assay on P. vulgaris NCTC 8313 (P. vulgaris NCTC 8313, agar dilution, Mueller-Hinton agar); 0.025 µg/mL (≈ 0.0549 µM) in the assay with K. pneumoniae NCTC 9632 (K. pneumoniae NCTC 9632, agar dilution, Mueller-Hinton agar); 1.56 µg/mL (≈ 3.43 µM) in the assay with Staph. aureus C-5216; at most 0.006 µg/mL with Prov. stuartii IFO 12930; 1.56 µg/mL (≈ 3.43 µM) in the assay with Staph. aureus Smith; 100 µg/mL (≈ 220 µM) in the assay on Staph. aureus C-57. In addition, the MIC in assay [3] (S. epidermidis ATCC 12228, agar dilution, Mueller-Hinton agar) worked out at 0.1 µg/mL (≈ 0.22 µM); in the assay on Ent. aerogenes IFO 12979, 0.025 µg/mL (≈ 0.0549 µM); in the assay with Ent. cloacae IFO 13535 (Ent. cloacae IFO 13535, agar dilution, Mueller-Hinton agar), 0.78 µg/mL (≈ 1.71 µM); in the assay on B. subtilis ATCC 6633 (B. subtilis ATCC 6633, agar dilution, Mueller-Hinton agar), 0.1 µg/mL (≈ 0.22 µM); in assay [6] it was 6.25 µg/mL (≈ 13.7 µM); with Staph. aureus ATCC 6538P (Staph. aureus ATCC 6538P, agar dilution, Mueller-Hinton agar), 0.78 µg/mL (≈ 1.71 µM). In addition, the MIC in the assay on M. morganii DY-1 (M. morganii DY-1, agar dilution, Mueller-Hinton agar) came out at 0.025 µg/mL (≈ 0.0549 µM); with Ps. aeruginosa DY-2 (Ps. aeruginosa DY-2, agar dilution, Mueller-Hinton agar), 12.5 µg/mL (≈ 27.4 µM). The “antibacterial activities against Gram-positive bacteria, in particular Staphylococcus species” value in assay [4] was “have antibacterial activities against Staphylococcus species”. In assay [5], the “antibacterial activities against Gram-negative bacteria such as Pseudomonas aeruginosa” value is “less effective antibacterial activities”.
